Test results taken from paper PMC9570109, “Improved Trimethylangelicin Analogs for Cystic Fibrosis: Design, Synthesis and Preliminary Screening” (International Journal of Molecular Sciences, 2022).

What follows are compounds tested on Salmonella typhimurium TA100 (assay: Ames mutagenicity assay, plate incorporation, TA100). Settings: TA100, +S9, 5 µL/plate of 500 nM stock.
Format: cell-based
Protocol: The mutagenicity assay was performed for the test compounds following the plate incorporation method with the histidine-requiring Salmonella typhimurium mutant TA97A, TA98, TA100, and TA1535 strains purchased by Molecular Toxicology Inc. (Boone, NC, USA; moltox.com). All strains (100 µL per plate of fresh overnight cultures) were checked with and without the addition of 0.5 mL of a 5% S9 exogenous metabolic activator (S9 mix). The lyophilized post-mitochondrial supernatant S9 mix (Aroclor 1254-induced, Sprague–Dawley male rat liver in 0.154 M KCl solution), commonly used for the activation of pro-mutagens in mutagenic metabolites (Molecular Toxicology, Inc., Boone, NC, USA), was stored at −80 °C before use. The concentration tested for all the samples were 5, 10, 20, 50, and 100 µL/plate from a stock solution of 500 nM. A fully grown culture of the appropriate tester strain (0.1 mL) was added to 2 mL molten top agar (0.6% agar, 0.6% NaCl, 0.5 mM L-histidine/biotin solution) at 46 °C, together with 0.1 mL of each sample solution at different concentrations, and 0.5 mL S9 mix for assays with metabolic activation. The ingredients were thoroughly mixed and poured onto minimal glucose agar plates (1.5% agar in 2% Vogel–Bonner medium E with 5% glucose solution). DMSO was used as negative a control (100 µL/plate). Positive controls were prepared as follows: 2-aminoanthracene (2 µg/plate) and 2-nitrofluorene (2 µg/plate) for TA 97A, TA98 and TA1535 with and without metabolic activator (S9 mix), respectively; 2-aminoanthracene (2 µg/plate) and sodium azide (2 µg/plate) for TA100, with and without metabolic activator (S9 mix), respectively. The plates were incubated at 37 °C for 72 h and then his+ revertants were checked and counted using a Colony Counter 560 Suntex (Antibioticos, Italy). A sample was considered mutagenic when the observed number of colonies was at least twofold over the spontaneous level of revertants. All determinations were made in triplicate. Statistical analysis: relative standard deviations were calculated using the statistical software STATISTICA 6.0 (StatSoft, Italia srl, Vigonza, Italy). […]
Salmonella typhimurium TA97A Salmonella typhimurium TA98 Salmonella typhimurium TA100 Salmonella typhimurium 1535 […]
average SD t/c average SD t/c average SD t/c average SD t/c average SD t/c average SD t/c average SD t/c average SD t/c […]
*Significant values according to Ames computation (Maron & Ames, 1983); DMSO, C+: negative and positive controls respectively; SD: Standard Deviation; t/c: number of revertant colonies in treated plates/number of revertant colonies in […]
`Cc1cc2c(-c3ccccc3)cc(=O)oc2c2c(C)coc12` [4-PhDMA] was tested, and the “revertant colonies, average” value was 159.5 and the “t/c (revertant colonies treated/untreated plates)” value was 0.9. `Cc1cc(=O)oc2c1cc(-c1ccccc1)c1occ(C)c12` [6-PhDMA] was tested, and the “revertant colonies, average” value was 182.0 and the “t/c (revertant colonies treated/untreated plates)” value was 1.1. In the case of `Cc1cc(=O)oc2c1cc(-c1ccc(N)cc1)c1occ(C)c12` [pANDMA], the “revertant colonies, average” value is reported as 175.0 and the “t/c (revertant colonies treated/untreated plates)” value is reported as 1.0.

Same assay, conditions: TA100, +S9, 10 µL/plate of 500 nM stock
`Cc1cc2c(-c3ccccc3)cc(=O)oc2c2c(C)coc12` [4-PhDMA] was tested, and the “revertant colonies, average” value was 193.0 and the “t/c (revertant colonies treated/untreated plates)” value was 1.1. `Cc1cc(=O)oc2c1cc(-c1ccccc1)c1occ(C)c12` [6-PhDMA] was tested, and the “revertant colonies, average” value was 178.5 and the “t/c (revertant colonies treated/untreated plates)” value was 1.0. With `Cc1cc(=O)oc2c1cc(-c1ccc(N)cc1)c1occ(C)c12` [pANDMA] the “revertant colonies, average” value was 181.5 and the “t/c (revertant colonies treated/untreated plates)” value was 1.1.

Same assay, conditions: TA100, +S9, 20 µL/plate of 500 nM stock
For `Cc1cc2c(-c3ccccc3)cc(=O)oc2c2c(C)coc12` [4-PhDMA], the “revertant colonies, average” value was 193.5 and the “t/c (revertant colonies treated/untreated plates)” value was 1.1. `Cc1cc(=O)oc2c1cc(-c1ccccc1)c1occ(C)c12` [6-PhDMA] was tested, and the “revertant colonies, average” value was 184.5 and the “t/c (revertant colonies treated/untreated plates)” value was 1.1. In the case of `Cc1cc(=O)oc2c1cc(-c1ccc(N)cc1)c1occ(C)c12` [pANDMA], the “revertant colonies, average” value is reported as 224.0 and the “t/c (revertant colonies treated/untreated plates)” value is reported as 1.3.

Same assay, conditions: TA100, +S9, 50 µL/plate of 500 nM stock
`Cc1cc2c(-c3ccccc3)cc(=O)oc2c2c(C)coc12` [4-PhDMA] was tested, and the “revertant colonies, average” value was 187.5 and the “t/c (revertant colonies treated/untreated plates)” value was 1.1. With `Cc1cc(=O)oc2c1cc(-c1ccccc1)c1occ(C)c12` [6-PhDMA] the “revertant colonies, average” value was 178.0 and the “t/c (revertant colonies treated/untreated plates)” value was 1.0. In the case of `Cc1cc(=O)oc2c1cc(-c1ccc(N)cc1)c1occ(C)c12` [pANDMA], the “revertant colonies, average” value is reported as 232.0 and the “t/c (revertant colonies treated/untreated plates)” value is reported as 1.4.

Same assay, conditions: TA100, +S9, 100 µL/plate of 500 nM stock
`Cc1cc2c(-c3ccccc3)cc(=O)oc2c2c(C)coc12` [4-PhDMA] was tested, and the “revertant colonies, average” value was 197.0 and the “t/c (revertant colonies treated/untreated plates)” value was 1.2. In the case of `Cc1cc(=O)oc2c1cc(-c1ccccc1)c1occ(C)c12` [6-PhDMA], the “revertant colonies, average” value is reported as 203.0 and the “t/c (revertant colonies treated/untreated plates)” value is reported as 1.2. For `Cc1cc(=O)oc2c1cc(-c1ccc(N)cc1)c1occ(C)c12` [pANDMA], the “revertant colonies, average” value was 235.5 and the “t/c (revertant colonies treated/untreated plates)” value was 1.4.

Same assay, conditions: TA100, -S9, 5 µL/plate of 500 nM stock
`Cc1cc2c(-c3ccccc3)cc(=O)oc2c2c(C)coc12` [4-PhDMA] was tested, and the “revertant colonies, average” value was 208.5 and the “t/c (revertant colonies treated/untreated plates)” value was 1.1. `Cc1cc(=O)oc2c1cc(-c1ccccc1)c1occ(C)c12` [6-PhDMA] was tested, and the “revertant colonies, average” value was 186.5 and the “t/c (revertant colonies treated/untreated plates)” value was 1.0. In the case of `Cc1cc(=O)oc2c1cc(-c1ccc(N)cc1)c1occ(C)c12` [pANDMA], the “revertant colonies, average” value is reported as 192.0 and the “t/c (revertant colonies treated/untreated plates)” value is reported as 1.0.

Same assay, conditions: TA100, -S9, 10 µL/plate of 500 nM stock
For `Cc1cc2c(-c3ccccc3)cc(=O)oc2c2c(C)coc12` [4-PhDMA], the “revertant colonies, average” value was 198.5 and the “t/c (revertant colonies treated/untreated plates)” value was 1.0. For `Cc1cc(=O)oc2c1cc(-c1ccccc1)c1occ(C)c12` [6-PhDMA], the “revertant colonies, average” value was 220.0 and the “t/c (revertant colonies treated/untreated plates)” value was 1.1. With `Cc1cc(=O)oc2c1cc(-c1ccc(N)cc1)c1occ(C)c12` [pANDMA] the “revertant colonies, average” value was 189.0 and the “t/c (revertant colonies treated/untreated plates)” value was 1.0.

Same assay, conditions: TA100, -S9, 20 µL/plate of 500 nM stock
With `Cc1cc2c(-c3ccccc3)cc(=O)oc2c2c(C)coc12` [4-PhDMA] the “revertant colonies, average” value was 207.0 and the “t/c (revertant colonies treated/untreated plates)” value was 1.1. With `Cc1cc(=O)oc2c1cc(-c1ccccc1)c1occ(C)c12` [6-PhDMA] the “revertant colonies, average” value was 172.0 and the “t/c (revertant colonies treated/untreated plates)” value was 0.9. With `Cc1cc(=O)oc2c1cc(-c1ccc(N)cc1)c1occ(C)c12` [pANDMA] the “revertant colonies, average” value was 204.5 and the “t/c (revertant colonies treated/untreated plates)” value was 1.0.

Same assay, conditions: TA100, -S9, 50 µL/plate of 500 nM stock
For `Cc1cc2c(-c3ccccc3)cc(=O)oc2c2c(C)coc12` [4-PhDMA], the “revertant colonies, average” value was 184.5 and the “t/c (revertant colonies treated/untreated plates)” value was 0.9. For `Cc1cc(=O)oc2c1cc(-c1ccccc1)c1occ(C)c12` [6-PhDMA], the “revertant colonies, average” value was 202.5 and the “t/c (revertant colonies treated/untreated plates)” value was 1.0. In the case of `Cc1cc(=O)oc2c1cc(-c1ccc(N)cc1)c1occ(C)c12` [pANDMA], the “revertant colonies, average” value is reported as 189.0 and the “t/c (revertant colonies treated/untreated plates)” value is reported as 1.0.

Same assay, conditions: TA100, -S9, 100 µL/plate of 500 nM stock
With `Cc1cc2c(-c3ccccc3)cc(=O)oc2c2c(C)coc12` [4-PhDMA] the “revertant colonies, average” value was 179.0 and the “t/c (revertant colonies treated/untreated plates)” value was 0.9. `Cc1cc(=O)oc2c1cc(-c1ccccc1)c1occ(C)c12` [6-PhDMA] was tested, and the “revertant colonies, average” value was 185.5 and the “t/c (revertant colonies treated/untreated plates)” value was 0.9. For `Cc1cc(=O)oc2c1cc(-c1ccc(N)cc1)c1occ(C)c12` [pANDMA], the “revertant colonies, average” value was 165.5 and the “t/c (revertant colonies treated/untreated plates)” value was 0.8.
